Consider 21 molecules from ChEMBL document CHEMBL2177056, “Bis(arylvinyl)pyrazines, -pyrimidines, and -pyridazines as imaging agents for tau fibrils and β-amyloid plaques in Alzheimer's disease models” (J Med Chem, 2012).

The source made the active and inactive calls. The rule behind the calls is not given here.

In one data set the test system is HepG2. Briefly: Cytotoxicity against human HepG2 cells. Format: cell-based.
A short description of data set [1]: Displacement of thiazene red from amyloid beta (1 to 40) aggregate.
A further data set concerns Mus musculus. Briefly: Binding affinity to amyloid beta plaque in transgenic mouse brain overexpressing APP Swedish mutant/PS1deltaE9 at 2 mg/kg, ip after 4 hrs by fluorescence microscopic analysis. Type of data set: functional, organism-based. More on the design: dose 2 mg/kg.
In data set [2] the target is T1, Microtubule-associated protein tau (Homo sapiens, UniProt P10636). Briefly: Displacement of thiazene red from tau aggregate.
Data set [3] concerns the target T1, Microtubule-associated protein tau. Briefly: Binding affinity to intracellular fibrillar tau in Alzheimer patient brain by fluorescence microscopic analysis. Type of data set: cell-based.
Data set [4] shares this target. Briefly: Binding affinity to extracellular tau plaques in Alzheimer patient brain by fluorescence microscopic analysis.
The target of data set [5] is Amyloid-beta precursor protein (Homo sapiens) (UniProt P05067). Briefly: Binding affinity to extracellular amyloid beta plaques in Alzheimer patient brain by fluorescence microscopic analysis.
For data set [6] the target is unchanged. Briefly: Binding affinity to intravascular amyloid beta angiopathies in Alzheimer patient brain by fluorescence microscopic analysis.
Data set [7] is described as follows: Selectivity ratio of IC50 for amyloid beta (1 to 40) aggregate to IC50 for tau aggregate.
A short description of data set [8]: Lipophilicity, log P of the compound. Type of data set: physicochemical. To be noted: octanol/water.
The nature of data set [9]: Displacement of methoxy-XO4 from amyloid beta (1 to 40) aggregate.
A short description of data set [10]: Selectivity ratio of IC50 for tau aggregate to IC50 for amyloid beta (1 to 40) aggregate.
In data set [11] the target is T1, Microtubule-associated protein tau. Briefly: Binding affinity to tau aggregate in Alzheimer patient bowmans gland of olfactory epithelium.

T1 sequence (P10636 whole entry): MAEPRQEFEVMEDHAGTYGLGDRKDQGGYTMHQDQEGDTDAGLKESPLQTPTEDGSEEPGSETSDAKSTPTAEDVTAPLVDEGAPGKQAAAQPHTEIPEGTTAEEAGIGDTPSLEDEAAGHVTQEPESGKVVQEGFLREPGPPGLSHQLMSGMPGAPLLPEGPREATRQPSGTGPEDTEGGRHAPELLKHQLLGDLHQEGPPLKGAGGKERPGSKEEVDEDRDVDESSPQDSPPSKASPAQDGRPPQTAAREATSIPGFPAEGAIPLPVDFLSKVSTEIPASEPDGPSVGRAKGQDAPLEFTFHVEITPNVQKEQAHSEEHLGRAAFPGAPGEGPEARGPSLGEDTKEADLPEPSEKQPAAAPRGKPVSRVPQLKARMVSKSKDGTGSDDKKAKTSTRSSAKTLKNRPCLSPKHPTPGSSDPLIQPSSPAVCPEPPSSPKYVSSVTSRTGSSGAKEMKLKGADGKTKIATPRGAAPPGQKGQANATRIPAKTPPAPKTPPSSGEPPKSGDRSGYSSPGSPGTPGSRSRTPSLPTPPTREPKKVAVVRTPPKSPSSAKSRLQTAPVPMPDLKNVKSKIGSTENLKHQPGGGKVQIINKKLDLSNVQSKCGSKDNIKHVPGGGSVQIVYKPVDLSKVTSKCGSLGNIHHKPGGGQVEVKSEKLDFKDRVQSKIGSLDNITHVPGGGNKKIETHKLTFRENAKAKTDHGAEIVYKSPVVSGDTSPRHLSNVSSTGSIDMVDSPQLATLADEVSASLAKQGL
Amyloid-beta precursor protein (Homo sapiens), sequence (P05067 whole entry): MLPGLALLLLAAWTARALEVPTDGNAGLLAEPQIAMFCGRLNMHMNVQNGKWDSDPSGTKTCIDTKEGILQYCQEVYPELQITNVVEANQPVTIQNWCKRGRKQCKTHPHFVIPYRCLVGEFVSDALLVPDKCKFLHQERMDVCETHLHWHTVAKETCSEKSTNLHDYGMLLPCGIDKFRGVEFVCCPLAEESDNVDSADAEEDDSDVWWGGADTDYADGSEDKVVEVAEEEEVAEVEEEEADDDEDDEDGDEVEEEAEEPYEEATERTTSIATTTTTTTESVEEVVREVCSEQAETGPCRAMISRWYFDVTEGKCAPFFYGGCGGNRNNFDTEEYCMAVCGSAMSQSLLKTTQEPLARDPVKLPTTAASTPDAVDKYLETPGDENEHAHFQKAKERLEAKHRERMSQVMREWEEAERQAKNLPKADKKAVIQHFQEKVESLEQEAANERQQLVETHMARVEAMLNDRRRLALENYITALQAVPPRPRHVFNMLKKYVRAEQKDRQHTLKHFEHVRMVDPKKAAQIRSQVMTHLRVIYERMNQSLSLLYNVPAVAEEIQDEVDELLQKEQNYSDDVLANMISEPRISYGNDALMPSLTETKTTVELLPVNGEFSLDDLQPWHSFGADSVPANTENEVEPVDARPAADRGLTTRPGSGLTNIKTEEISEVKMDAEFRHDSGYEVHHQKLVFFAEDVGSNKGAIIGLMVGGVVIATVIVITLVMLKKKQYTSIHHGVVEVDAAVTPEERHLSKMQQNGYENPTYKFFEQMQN

A word on the IC50: it is the concentration that gives 50% inhibition. For `C(=C\c1cc(/C=C/c2ccc(N3CCCC3)cc2)ncn1)/c1ccc(N2CCCC2)cc1`, in the data set with HepG2, the Activity entry is recorded as “Non-toxic”. Further, the IC50 in data set [1] (read-out: IC50) was 52 nM; in [2] (read-out: IC50) it was 2 nM. The outcome in the data set with Mus musculus was inactive. The result in [3] and in data set [4] was Active.

For the molecule `Cn1cccc1/C=C/c1cc(-c2ccccc2)c(/C=C/c2cccn2C)nn1`, the IC50 entry in data set [1] and in [2] was “Not Active” throughout. Further, the result in [3] and in data set [4] was Active.

For `C(=C\c1cc(/C=C/c2ccc(N3CCCCC3)cc2)ncn1)/c1ccc(N2CCCCC2)cc1`, the IC50 in [1] (read-out: IC50) is 156 nM; in data set [2] (read-out: IC50) it was 17 nM. The outcome in [3] and in data set [4] was Active.

Consider `COc1ccc(-c2cc(/C=C/c3ccc(N(C)C)cc3)nnc2/C=C/c2ccc(N(C)C)cc2)cc1`, for which the values for the IC50 in data set [1] (read-out: IC50) and in data set [2] (read-out: IC50) were 4570 nM and 1590 nM, respectively. Also, the outcome in [3] and in [4] was Active.

With `CN(C)c1ccc(/C=C/c2cc(-c3ccccc3F)c(/C=C/c3ccc(N(C)C)cc3)nn2)cc1`, the IC50 turned out to be 10100 nM in data set [1] (read-out: IC50) and 1250 nM in [2] (read-out: IC50). Also, the result in data set [3] and in data set [4] was Active.

As to `CN(C)c1ccc(/C=C/c2cc(-c3ccccc3)c(/C=C/c3ccc(N(C)C)cc3)nn2)cc1`, the IC50 result in data set [1] and in data set [2] was “Not Active” in each case. In addition, the outcome in data set [3] and in [4] was Active.

As to `CN1CCN(c2ccc(/C=C/c3cc(/C=C/c4ccc(N5CCN(C)CC5)cc4)ncn3)cc2)CC1`, the IC50 in data set [1] (read-out: IC50) came out at 2380 nM; in data set [2] (read-out: IC50), 7470 nM. For the same molecule, the outcome in data set [3] and in data set [4] was Active.

`CN(C)c1ccc(/C=C/C=C/c2cc(/C=C/C=C/c3ccc(N(C)C)cc3)ncn2)cc1`: the IC50 was 3 nM in data set [1] (read-out: IC50) and 2 nM in data set [2] (read-out: IC50). Also, the result in data set [3] and in [4] was Active.

With `CC(C)c1ccc(/C=C/c2cnc(/C=C/c3ccc(C(C)C)cc3)cn2)cc1`, the IC50 result in data set [1] and in [2] was “Not Active” throughout. Besides, the result in data set [3] and in [4] was Active.

On to `COc1ccc(/C=C/c2cnc(/C=C/c3ccc(OC)cc3)cn2)cc1`, for which the figures for the IC50 in data set [1] (read-out: IC50) and in data set [2] (read-out: IC50) were 17 nM and 13 nM, respectively. The result in data set [3] and in [4] was Active.

For the molecule `CN(C)c1ccc(/C=C/c2cnc(/C=C/c3ccc(N(C)C)cc3)cn2)cc1`, the result (in the data set on Mus musculus; in data set [5]; in [6]; in data set [3]; in data set [4]) was Active.

As for `C(=C\c1cc(-c2ccccc2)c(/C=C/c2ccc(N3CCOCC3)cc2)nn1)/c1ccc(N2CCOCC2)cc1`, the IC50 in data set [1] (read-out: IC50) came to 7590 nM; in data set [2] (read-out: IC50), 4710 nM. Besides, the result in [3] and in [4] was Active.

On to `C(=C\c1cnc(/C=C/c2ccc(N3CCCCC3)cc2)cn1)/c1ccc(N2CCCCC2)cc1`, for which the outcome in [3] and in data set [4] was Active.

For orientation: logP means the decadic logarithm of the partition coefficient of the neutral form, usually between octanol and water. In the case of `COc1cc(/C=C/c2ccc(O)cc2)ccc1/C=C/c1ccc(O)cc1`, the IC50 in [1] (read-out: IC50) stood at 140 nM; in data set [2] (read-out: IC50) it was 246 nM. Further, the Ratio IC50 in [7] is 1.8. Further, the logP in data set [8] came out at 2.6.

For the molecule `C(=C\c1cnc(/C=C/c2ccc(N3CCOCC3)cc2)cn1)/c1ccc(N2CCOCC2)cc1`, the IC50 came out at 43 nM in data set [1] (read-out: IC50) and 6 nM in data set [2] (read-out: IC50). The outcome in [3] and in data set [4] was Active.

On to `Cn1cccc1/C=C/c1cnc(/C=C/c2cccn2C)cn1`, for which the outcome in data set [3] and in data set [4] was Active.

Turning to `C(=C\c1cc(/C=C/c2ccc(N3CCOCC3)cc2)ncn1)/c1ccc(N2CCOCC2)cc1`, the IC50 entry in data set [1] and in data set [2] was “Not Active” throughout. Besides, the outcome in [3] and in data set [4] was Active.

As for `CN1CCN(c2ccc(/C=C/c3cnc(/C=C/c4ccc(N5CCN(C)CC5)cc4)cn3)cc2)CC1`, the IC50 in data set [1] (read-out: IC50) is 51 nM; in data set [2] (read-out: IC50), 42 nM. Besides, the outcome in data set [3] and in data set [4] was Active.

Consider `C(=C\c1cnc(/C=C/c2ccc(N3CCCC3)cc2)cn1)/c1ccc(N2CCCC2)cc1`, for which the outcome in data set [3] and in data set [4] was Active.

As usually defined, the Ki is the dissociation constant of the complex between target and ligand, obtained from inhibition or displacement. A lower Ki goes with higher affinity. Take `[11CH3]Oc1cc(/C=C/c2ccc(O)cc2)ccc1/C=C/c1ccc(O)cc1`: affinity in data set [9] was put at a Ki of 26.8 nM. That is a double-digit nanomolar value.

As for `CN(C)c1ccc(/C=C/c2cc(/C=C/c3ccc(N(C)C)cc3)ncn2)cc1`, the Activity entry with HepG2 is reported as “Non-toxic”. The IC50 was found to be 54 nM in [1] (read-out: IC50) and 4 nM in data set [2] (read-out: IC50). The result (with Mus musculus; in [11]; in [3]; in data set [4]) was Active. For the same molecule, the Ratio IC50 in data set [10] amounted to 13.5.
